Measured values taken from ChEMBL document CHEMBL5376002, “A Hybrid Antimicrobial Peptide Targeting Staphylococcus aureus with a Dual Function of Inhibiting Quorum Sensing Signaling and an Antibacterial Effect” (J Med Chem, 2023).
pKd: −log10 of the molar value. In brackets after ≈: the same amount, converted by molar mass. Activity calls are given as the source filed them. The rule behind the calls is not given here. Numbered stars: 1 amine (or outer) side, 2 acyl side, 3 side chain; on linkers, the order of the positions; unused ones are H or OH. Bridge positions count the residues as written; N and C are the ends. Square brackets hold non-standard residues; d marks the D form. Peptide text beside a SMILES is read from it. I, II: the chains in the order shown. X1 = O=C1CC([*:2])C(=O)N1CCCCCC(=O)[*:1]; Dab = NCC[C@H](N)C(=O)O

Experiments:
[1] = tested on: Staphylococcus aureus; test: Antibacterial activity against Staphylococcus aureus ATCC 6538p assessed as inhibition of bacterial growth incubated for 18 to 24 hrs; format: functional; settings: time 18-24 hrs
[2] = tested on: Staphylococcus aureus; test: Antibacterial activity against Staphylococcus aureus ATCC 12600 assessed as inhibition of bacterial growth incubated for 18 to 24 hrs; format: functional; settings: time 18-24 hrs
[3] = tested on: Staphylococcus aureus; test: Antibacterial activity against Staphylococcus aureus ATCC 43300 assessed as inhibition of bacterial growth incubated for 18 to 24 hrs; format: functional; settings: time 18-24 hrs
[4] = tested on: Staphylococcus aureus; test: Bactericidal activity against Staphylococcus aureus ATCC 43300 assessed as inhibition of bacterial growth incubated for 18 to 24 hrs; format: functional; settings: time 18-24 hrs
[5] = tested on: Staphylococcus epidermidis; test: Antibacterial activity against Staphylococcus epidermidis ATCC 12228 assessed as inhibition of bacterial growth incubated for 18 to 24 hrs; format: functional; settings: time 18-24 hrs
[6] = tested on: Staphylococcus epidermidis; test: Bactericidal activity against Staphylococcus epidermidis ATCC 12228 assessed as inhibition of bacterial growth incubated for 18 to 24 hrs; format: functional; settings: time 18-24 hrs
[7] = tested on: Streptococcus pneumoniae; test: Antibacterial activity against Streptococcus pneumoniae ATCC 49619 assessed as inhibition of bacterial growth incubated for 18 to 24 hrs; format: functional; settings: time 18-24 hrs
[8] = tested on: Streptococcus pneumoniae; test: Bactericidal activity against Streptococcus pneumoniae ATCC 49619 assessed as inhibition of bacterial growth incubated for 18 to 24 hrs; format: functional; settings: time 18-24 hrs
[9] = tested on: Staphylococcus saprophyticus; test: Bactericidal activity against Staphylococcus saprophyticus ATCC BAA-750 assessed as inhibition of bacterial growth incubated for 18 to 24 hrs; format: functional; settings: time 18-24 hrs
[10] = tested on: Streptococcus mutans; test: Antibacterial activity against Streptococcus mutans UA159 assessed as inhibition of bacterial growth incubated for 18 to 24 hrs; format: functional; settings: time 18-24 hrs
[11] = tested on: Streptococcus mutans; test: Bactericidal activity against Streptococcus mutans UA159 assessed as inhibition of bacterial growth incubated for 18 to 24 hrs; format: functional; settings: time 18-24 hrs
[12] = tested on: Streptococcus mutans; test: Antibacterial activity against Streptococcus mutans ATCC 25175 assessed as inhibition of bacterial growth incubated for 18 to 24 hrs; format: functional; settings: time 18-24 hrs
[13] = tested on: Streptococcus mutans; test: Bactericidal activity against Streptococcus mutans ATCC 25175 assessed as inhibition of bacterial growth incubated for 18 to 24 hrs; format: functional; settings: time 18-24 hrs
[14] = Binding affinity to AgrC-I extra-loop-I (unknown origin) assessed as dissociation constant incubated for 10 mins by isothermal titration calorimetry analysis
[15] = Binding affinity to AgrC-I extra-loop-II (unknown origin) assessed as dissociation constant incubated for 10 mins by isothermal titration calorimetry analysis
[16] = Binding affinity to AgrC-I extra-loop-II (unknown origin) assessed as change in enthalpy incubated for 10 mins by isothermal titration calorimetry analysis
[17] = Binding affinity to AgrC-I extra-loop-III (unknown origin) assessed as change in enthalpy incubated for 10 mins by isothermal titration calorimetry analysis
[18] = species: Homo sapiens; test: Binding affinity to AgrC-I extra-loop-I (unknown origin) assessed as gibbs free energy change incubated for 10 mins by isothermal titration calorimetry analysis
[19] = species: Homo sapiens; test: Binding affinity to AgrC-I extra-loop-II (unknown origin) assessed as gibbs free energy change incubated for 10 mins by isothermal titration calorimetry analysis
[20] = species: Homo sapiens; test: Binding affinity to AgrC-I extra-loop-III (unknown origin) assessed as gibbs free energy change incubated for 10 mins by isothermal titration calorimetry analysis
[21] = species: Homo sapiens; test: Binding affinity to AgrC-I extra-loop-I (unknown origin) assessed as change in entropy incubated for 10 mins by isothermal titration calorimetry analysis
[22] = species: Homo sapiens; test: Binding affinity to AgrC-I extra-loop-II (unknown origin) assessed as change in entropy incubated for 10 mins by isothermal titration calorimetry analysis
[23] = species: Homo sapiens; test: Binding affinity to AgrC-I extra-loop-III (unknown origin) assessed as change in entropy incubated for 10 mins by isothermal titration calorimetry analysis
[24] = Inhibition of quorum sensing system in Staphylococcus epidermidis ATCC 12228 assessed as downregulation of RNAIII expression level at 0.78 uM incubated for 24 hrs by qRT-PCR analysis
[25] = tested on: Staphylococcus aureus; test: Antivirulence activity against Staphylococcus aureus assessed as downregulation of RNAIII expression level at 1 to 100 uM incubated for 24 hrs by qRT-PCR analysis; format: functional, organism-based; settings: dose 1-100 µM
[26] = tested on: Staphylococcus aureus; test: Antivirulence activity against Staphylococcus aureus assessed as downregulation of hla expression level at 1 to 100 uM incubated for 24 hrs by qRT-PCR analysis; format: functional, organism-based; settings: dose 1-100 µM
[27] = tested on: Staphylococcus aureus; test: Antivirulence activity against Staphylococcus aureus assessed as downregulation of psm-alpha expression level at 1 to 100 uM incubated for 24 hrs by qRT-PCR analysis; format: functional, organism-based; settings: dose 1-100 µM
[28] = tested on: Staphylococcus aureus; test: Antibacterial activity against Staphylococcus aureus assessed as reduction in bacterial growth at 6.25 uM measured at 20 mins by time kill assay; format: functional, organism-based
[29] = tested on: Staphylococcus epidermidis; test: Antibacterial activity against Staphylococcus epidermidis assessed as reduction in bacterial growth at 6.25 uM measured at 20 mins by time kill assay; format: functional, organism-based
[30] = tested on: Staphylococcus saprophyticus; test: Antibacterial activity against Staphylococcus saprophyticus assessed as reduction in bacterial growth at 6.25 uM measured at 20 mins by time kill assay; format: functional, organism-based
[31] = tested on: Streptococcus pneumoniae; test: Antibacterial activity against Streptococcus pneumoniae assessed as reduction in bacterial growth at 6.25 uM measured at 20 mins by time kill assay; format: functional, organism-based
[32] = tested on: Escherichia coli; test: Antibacterial activity against Escherichia coli assessed as reduction in bacterial growth at 6.25 uM measured at 20 mins by time kill assay; format: functional, organism-based
[33] = tested on: Staphylococcus aureus; test: Inhibition of biofilm formation in Staphylococcus aureus at 0.78 to 1.56 uM incubated for 24 hrs by crystal violet staining based analysis; format: functional, organism-based; settings: dose 0.78-1.56 µM
[34] = tested on: Staphylococcus aureus; test: Inhibition of biofilm formation in Staphylococcus aureus at 0.39 uM incubated for 24 hrs by crystal violet staining based analysis; format: functional, organism-based
[35] = tested on: Staphylococcus aureus; test: Inhibition of biofilm formation in Staphylococcus aureus incubated for 24 hrs by crystal violet staining based microscopic analysis; format: functional, organism-based
[36] = tested on: Cell membrane; test: Induction of cell membrane damage in Staphylococcus aureus ATCC 6538p assessed as increase in nucleic acid leakage measured up to 30 mins by UV-spectrophotometer analysis; format: subcellular
[37] = tested on: Cell membrane; test: Induction of cell membrane damage in Staphylococcus aureus ATCC 6538p assessed as increase in fluorescent intensity incubated for 30 mins by PI staining based flow cytometry assay
[38] = Toxicity in Kunming mouse infected with Staphylococcus aureus ATCC 6538p assessed as animal survival rate 15 mg/kg, ip pre-infected with bacteria for 1 hr followed by compound administration and measured after 7 days; format: organism-based; settings: in vivo, 168 h, time 7 day
[39] = Toxicity in Kunming mouse infected with Staphylococcus aureus ATCC 6538p assessed as animal survival rate 45 mg/kg, ip pre-infected with bacteria for 1 hr followed by compound administration and measured after 7 days; format: organism-based; settings: in vivo, 168 h, time 7 day
[40] = Toxicity in Kunming mouse infected with Staphylococcus aureus ATCC 6538p assessed as weight loss 15 to 45 mg/kg, ip pre-infected with bacteria for 1 hr followed by compound administration and measured after 3 days; format: organism-based; settings: in vivo, 72 h, dose 15-45 mg/kg, time 3 day
[41] = Toxicity in Kunming mouse infected with Staphylococcus aureus ATCC 6538p assessed as body weight gain 15 to 45 mg/kg, ip pre-infected with bacteria for 1 hr followed by compound administration and measured after 5 days; format: organism-based; settings: in vivo, 120 h, dose 15-45 mg/kg, time 5 day

CC[C@H](C)[C@H](NC(=O)CNC(=O)CNC(=O)[C@@H](N)CSC1CC(=O)N(CCCCCC(=O)NCC(=O)N[C@H](C(=O)N[C@@H](CCCCN)C(=O)N[C@@H](CC(N)=O)C(=O)N[C@@H](CC(C)C)C(=O)N[C@@H](Cc2c[nH]c3ccccc23)C(=O)N[C@@H](CCCCN)C(=O)N[C@@H](CCCCN)C(=O)N[C@@H](CCSC)C(=O)N[C@H](C(=O)N[C@@H](CCCCN)C(=O)N[C@@H](CC(C)C)C(=O)N[C@@H](Cc2c[nH]c3ccccc23)C(=O)N[C@@H](Cc2ccc(O)cc2)C(=O)O)[C@@H](C)CC)[C@@H](C)CC)C1=O)C(=O)N[C@@H](CC(N)=O)C(=O)N[C@H]1CCNC(=O)[C@H](CC(C)C)NC(=O)[C@H](CC(C)C)NC(=O)[C@H](Cc2ccccc2)NC(=O)[C@H](C)NC1=O (stereo partly specified) (I: GIKNLWKKMIKLWY-OH / II: H-CGGIN[Dab]AFLL; linker I:N-II:1 via X1; lactam II:6-II:C)
MIC [1]: 3.13 µM (≈ 9.4 µg/mL) | MIC [2]: 3.13 µM (≈ 9.4 µg/mL) | MIC [3]: 6.25 µM (≈ 18.8 µg/mL) | MBC [4]: 6.25 µM (≈ 18.8 µg/mL) | MIC [5]: 1.56 µM (≈ 4.69 µg/mL) | MBC [6]: 3.13 µM (≈ 9.4 µg/mL) | MIC [7]: 6.25 µM (≈ 18.8 µg/mL) | MBC [8]: 6.25 µM (≈ 18.8 µg/mL) | MBC [9]: 3.13 µM (≈ 9.4 µg/mL) | MIC [10]: 6.25 µM (≈ 18.8 µg/mL) | MBC [11]: 6.25 µM (≈ 18.8 µg/mL) | MIC [12]: 3.13 µM (≈ 9.4 µg/mL) | MBC [13]: 3.13 µM (≈ 9.4 µg/mL) | pKd [14]: 12.00 | pKd [15]: 12.00 | deltaH [16]: inactive | deltaH [17]: inactive | deltaG [18]: -16.4 kcal/mol | deltaG [19]: -16.4 kcal/mol | deltaG [20]: -16.4 kcal/mol | -TdeltaS [21]: -11.7 kcal/mol | -TdeltaS [22]: 16.4 kcal/mol | -TdeltaS [23]: -16.3 kcal/mol | inhibition [24]: inactive | Activity [25]: Active | Activity [26]: Active | Activity [27]: Active | Activity [28]: Active | Activity [29]: inactive | Activity [30]: inactive | Activity [31]: inactive | Activity [32]: inactive | inhibition [33]: Active | inhibition [34]: Active | inhibition [35]: Active | Activity [36]: Active | Activity [37]: Active | Activity [38]: 20% | Activity [39]: 50% | Activity [40]: Non-Toxic | Activity [41]: Non-Toxic
